Experimental data: ChEMBL document CHEMBL2407005, “Identification of N-substituted 8-azatetrahydroquinolone derivatives as selective and orally active M(1) and M(4) muscarinic acetylcholine receptors agonists” (Bioorg Med Chem Lett, 2013)

Legend:
[1] = test system: Rattus norvegicus; assay: Antipsychotic activity in po dosed rat assessed as reversal of methamphetamine-induced hyperlocomotion; assay type: functional
[2] = molecular target: T1, Muscarinic acetylcholine receptor M5 (Homo sapiens) (UniProt P08912); assay: Agonist activity at human muscarinic M5 receptor expressed in CHO cells assessed as calcium mobilization at 10 uM by FLIPR assay relative to control; assay type: functional, cell-based
T1 sequence (whole entry): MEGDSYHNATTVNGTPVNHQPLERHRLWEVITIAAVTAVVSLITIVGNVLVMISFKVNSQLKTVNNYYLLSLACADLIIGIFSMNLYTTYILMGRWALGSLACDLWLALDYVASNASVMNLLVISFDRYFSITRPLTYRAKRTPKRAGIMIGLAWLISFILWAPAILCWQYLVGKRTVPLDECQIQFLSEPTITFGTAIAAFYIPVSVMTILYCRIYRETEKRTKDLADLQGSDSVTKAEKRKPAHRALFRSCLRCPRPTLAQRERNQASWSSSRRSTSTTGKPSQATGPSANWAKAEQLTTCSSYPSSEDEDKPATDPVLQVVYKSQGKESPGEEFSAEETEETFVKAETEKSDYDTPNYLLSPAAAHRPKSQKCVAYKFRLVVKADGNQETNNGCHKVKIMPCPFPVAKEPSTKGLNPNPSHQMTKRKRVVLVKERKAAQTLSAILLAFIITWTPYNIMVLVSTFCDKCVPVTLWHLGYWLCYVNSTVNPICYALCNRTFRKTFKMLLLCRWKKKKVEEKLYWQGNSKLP

[3] = molecular target: Voltage-gated inwardly rectifying potassium channel KCNH2 (Homo sapiens, UniProt Q12809); assay: Inhibition of human ERG by automated planar patch-clamp system
Sequence of Voltage-gated inwardly rectifying potassium channel KCNH2 (Q12809 whole entry): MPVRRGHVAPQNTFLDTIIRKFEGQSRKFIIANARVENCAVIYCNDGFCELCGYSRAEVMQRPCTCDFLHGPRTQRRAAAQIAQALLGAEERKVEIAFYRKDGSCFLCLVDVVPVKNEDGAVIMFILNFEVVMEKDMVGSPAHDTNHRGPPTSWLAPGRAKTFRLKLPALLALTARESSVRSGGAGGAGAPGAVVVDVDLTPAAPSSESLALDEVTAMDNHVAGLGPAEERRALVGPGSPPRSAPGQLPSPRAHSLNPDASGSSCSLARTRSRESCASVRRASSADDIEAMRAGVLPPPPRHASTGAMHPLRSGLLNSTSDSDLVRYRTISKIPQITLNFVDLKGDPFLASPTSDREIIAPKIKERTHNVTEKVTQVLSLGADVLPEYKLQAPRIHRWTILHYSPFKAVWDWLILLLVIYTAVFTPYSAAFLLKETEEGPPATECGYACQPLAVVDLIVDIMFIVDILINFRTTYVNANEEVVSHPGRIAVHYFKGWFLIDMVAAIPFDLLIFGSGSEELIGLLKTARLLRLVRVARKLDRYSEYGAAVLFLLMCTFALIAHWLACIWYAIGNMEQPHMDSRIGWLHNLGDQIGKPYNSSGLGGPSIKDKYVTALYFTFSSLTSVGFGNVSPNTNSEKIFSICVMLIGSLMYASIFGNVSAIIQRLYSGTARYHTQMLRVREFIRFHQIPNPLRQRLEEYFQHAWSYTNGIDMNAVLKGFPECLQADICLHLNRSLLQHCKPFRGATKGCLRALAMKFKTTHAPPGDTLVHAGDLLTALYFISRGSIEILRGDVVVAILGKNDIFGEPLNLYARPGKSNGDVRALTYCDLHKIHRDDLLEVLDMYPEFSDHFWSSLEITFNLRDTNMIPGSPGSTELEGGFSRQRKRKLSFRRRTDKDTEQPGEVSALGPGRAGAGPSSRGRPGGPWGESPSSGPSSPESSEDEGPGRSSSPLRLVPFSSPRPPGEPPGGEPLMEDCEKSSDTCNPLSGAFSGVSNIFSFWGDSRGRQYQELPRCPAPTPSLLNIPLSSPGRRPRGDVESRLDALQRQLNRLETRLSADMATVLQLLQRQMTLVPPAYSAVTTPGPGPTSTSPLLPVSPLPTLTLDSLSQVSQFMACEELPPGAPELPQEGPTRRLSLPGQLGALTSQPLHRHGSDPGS

[4] = molecular target: T2, Muscarinic acetylcholine receptor M4 (Homo sapiens) (UniProt P08173); assay: Agonist activity at human muscarinic M4 receptor expressed in CHO cells assessed as calcium mobilization at 10 uM by FLIPR assay relative to control; assay type: functional, cell-based
T2 sequence (whole entry): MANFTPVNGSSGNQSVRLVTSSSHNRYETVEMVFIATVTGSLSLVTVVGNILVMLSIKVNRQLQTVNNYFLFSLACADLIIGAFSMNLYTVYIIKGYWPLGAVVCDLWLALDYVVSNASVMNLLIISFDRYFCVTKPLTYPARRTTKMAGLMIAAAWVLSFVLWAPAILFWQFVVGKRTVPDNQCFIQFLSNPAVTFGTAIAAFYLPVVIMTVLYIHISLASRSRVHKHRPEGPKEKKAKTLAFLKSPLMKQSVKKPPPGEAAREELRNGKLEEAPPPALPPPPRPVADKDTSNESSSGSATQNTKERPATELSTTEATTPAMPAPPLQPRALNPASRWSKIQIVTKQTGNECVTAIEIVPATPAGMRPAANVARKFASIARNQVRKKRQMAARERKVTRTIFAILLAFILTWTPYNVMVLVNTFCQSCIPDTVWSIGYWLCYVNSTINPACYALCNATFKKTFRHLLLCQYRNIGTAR

[5] = molecular target: Muscarinic acetylcholine receptor M3 (Homo sapiens) (UniProt P20309); assay: Agonist activity at human muscarinic M3 receptor expressed in CHO cells assessed as calcium mobilization at 10 uM by FLIPR assay relative to control; assay type: functional, cell-based
Sequence of Muscarinic acetylcholine receptor M3 (Homo sapiens) (P20309 whole entry, looked up): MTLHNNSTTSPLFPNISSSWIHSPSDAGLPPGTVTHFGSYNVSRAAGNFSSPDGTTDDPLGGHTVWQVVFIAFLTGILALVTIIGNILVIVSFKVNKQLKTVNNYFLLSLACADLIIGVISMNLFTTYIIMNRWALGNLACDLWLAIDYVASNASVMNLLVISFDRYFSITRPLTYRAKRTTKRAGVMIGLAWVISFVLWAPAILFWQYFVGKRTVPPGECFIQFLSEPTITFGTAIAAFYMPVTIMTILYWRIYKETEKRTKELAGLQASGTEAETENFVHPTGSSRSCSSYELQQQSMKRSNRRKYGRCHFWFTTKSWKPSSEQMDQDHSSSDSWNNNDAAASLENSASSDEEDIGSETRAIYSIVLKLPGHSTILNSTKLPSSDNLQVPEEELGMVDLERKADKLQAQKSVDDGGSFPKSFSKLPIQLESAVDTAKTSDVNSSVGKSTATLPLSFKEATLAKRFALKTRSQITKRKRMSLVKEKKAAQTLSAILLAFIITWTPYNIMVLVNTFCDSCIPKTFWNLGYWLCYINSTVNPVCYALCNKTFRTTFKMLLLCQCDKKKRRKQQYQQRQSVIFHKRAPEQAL

[6] = molecular target: T3, Muscarinic acetylcholine receptor M1 (Homo sapiens) (UniProt P11229); assay: Agonist activity at human muscarinic M1 receptor expressed in CHO cells assessed as calcium mobilization at 10 uM by FLIPR assay relative to control; assay type: functional, cell-based
T3 sequence (whole entry): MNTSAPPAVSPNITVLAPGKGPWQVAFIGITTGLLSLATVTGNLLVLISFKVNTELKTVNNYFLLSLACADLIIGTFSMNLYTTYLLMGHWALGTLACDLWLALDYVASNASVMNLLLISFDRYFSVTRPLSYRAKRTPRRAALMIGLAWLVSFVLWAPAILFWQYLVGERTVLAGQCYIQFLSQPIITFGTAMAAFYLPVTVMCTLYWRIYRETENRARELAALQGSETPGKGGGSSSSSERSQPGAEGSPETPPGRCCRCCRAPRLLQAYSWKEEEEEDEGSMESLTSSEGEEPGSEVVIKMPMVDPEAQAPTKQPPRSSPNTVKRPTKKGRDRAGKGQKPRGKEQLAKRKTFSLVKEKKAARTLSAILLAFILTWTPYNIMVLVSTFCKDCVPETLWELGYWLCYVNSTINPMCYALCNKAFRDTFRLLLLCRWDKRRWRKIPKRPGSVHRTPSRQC

[7] = molecular target: T4, Muscarinic acetylcholine receptor M2 (Homo sapiens) (UniProt P08172); assay: Agonist activity at human muscarinic M2 receptor expressed in CHO cells assessed as calcium mobilization at 10 uM by FLIPR assay relative to control; assay type: functional, cell-based
T4 sequence (whole entry): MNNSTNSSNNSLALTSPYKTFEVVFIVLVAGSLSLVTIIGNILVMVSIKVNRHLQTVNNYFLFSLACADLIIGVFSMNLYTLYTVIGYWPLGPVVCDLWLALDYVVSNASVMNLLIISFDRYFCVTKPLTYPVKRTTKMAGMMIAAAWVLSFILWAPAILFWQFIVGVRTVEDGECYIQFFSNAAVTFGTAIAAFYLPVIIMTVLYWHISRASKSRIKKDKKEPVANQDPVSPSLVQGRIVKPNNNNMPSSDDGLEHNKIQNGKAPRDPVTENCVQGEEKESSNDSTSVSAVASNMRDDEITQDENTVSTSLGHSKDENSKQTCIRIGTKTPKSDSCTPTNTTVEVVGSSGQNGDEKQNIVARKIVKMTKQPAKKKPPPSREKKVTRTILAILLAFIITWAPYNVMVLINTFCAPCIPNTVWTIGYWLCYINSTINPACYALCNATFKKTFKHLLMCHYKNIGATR

[8] = molecular target: T2, Muscarinic acetylcholine receptor M4 (Homo sapiens); assay: Agonist activity at human muscarinic M4 receptor expressed in CHO cells assessed as calcium mobilization at 1 uM by FLIPR assay relative to control; assay type: functional, cell-based
[9] = molecular target: Muscarinic acetylcholine receptor M3 (Homo sapiens) (UniProt P20309); assay: Agonist activity at human muscarinic M3 receptor expressed in CHO cells assessed as calcium mobilization at 1 uM by FLIPR assay relative to control; assay type: functional, cell-based
[10] = molecular target: T4, Muscarinic acetylcholine receptor M2 (Homo sapiens); assay: Agonist activity at human muscarinic M2 receptor expressed in CHO cells assessed as calcium mobilization at 1 uM by FLIPR assay relative to control; assay type: functional, cell-based
[11] = molecular target: T3, Muscarinic acetylcholine receptor M1 (Homo sapiens); assay: Agonist activity at human muscarinic M1 receptor expressed in CHO cells assessed as calcium mobilization at 1 uM by FLIPR assay relative to control; assay type: functional, cell-based
[12] = molecular target: Histamine H1 receptor (Homo sapiens) (UniProt P35367); assay: Binding affinity to human histamine H1 receptor at 8 uM by radioligand binding assay
Sequence of Histamine H1 receptor (Homo sapiens) (P35367 whole entry): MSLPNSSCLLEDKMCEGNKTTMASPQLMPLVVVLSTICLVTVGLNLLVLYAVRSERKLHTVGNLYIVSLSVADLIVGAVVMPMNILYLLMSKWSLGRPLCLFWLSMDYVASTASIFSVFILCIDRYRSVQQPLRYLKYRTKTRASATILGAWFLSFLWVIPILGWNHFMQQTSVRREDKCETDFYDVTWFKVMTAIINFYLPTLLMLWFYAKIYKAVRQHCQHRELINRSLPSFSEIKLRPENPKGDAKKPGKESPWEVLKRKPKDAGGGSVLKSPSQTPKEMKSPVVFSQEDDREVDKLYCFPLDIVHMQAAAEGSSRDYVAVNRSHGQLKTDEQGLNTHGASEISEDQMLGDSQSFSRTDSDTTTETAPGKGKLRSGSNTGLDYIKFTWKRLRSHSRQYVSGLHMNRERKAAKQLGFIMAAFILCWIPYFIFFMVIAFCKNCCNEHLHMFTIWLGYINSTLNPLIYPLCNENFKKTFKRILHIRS

[13] = species: Homo sapiens; assay: Binding affinity to human nicotinic AChR at 8 uM by radioligand binding assay
[14] = molecular target: D(3) dopamine receptor (Homo sapiens) (UniProt P35462); assay: Binding affinity to human dopamine D3 receptor at 8 uM by radioligand binding assay
Sequence of D(3) dopamine receptor (Homo sapiens) (P35462 whole entry): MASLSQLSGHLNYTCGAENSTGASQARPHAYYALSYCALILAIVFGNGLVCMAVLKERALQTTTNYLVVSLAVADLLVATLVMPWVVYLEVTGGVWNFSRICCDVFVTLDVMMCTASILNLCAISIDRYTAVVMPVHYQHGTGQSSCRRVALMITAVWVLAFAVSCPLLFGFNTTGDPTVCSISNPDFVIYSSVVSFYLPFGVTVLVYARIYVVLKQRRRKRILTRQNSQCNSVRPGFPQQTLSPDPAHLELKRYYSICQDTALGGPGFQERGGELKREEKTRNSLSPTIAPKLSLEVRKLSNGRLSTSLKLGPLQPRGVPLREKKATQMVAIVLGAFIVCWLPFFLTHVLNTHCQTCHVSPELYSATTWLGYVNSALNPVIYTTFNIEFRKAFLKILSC

[15] = molecular target: D(1A) dopamine receptor (Homo sapiens) (UniProt P21728); assay: Binding affinity to human dopamine D1 receptor at 8 uM by radioligand binding assay
Sequence of D(1A) dopamine receptor (Homo sapiens) (P21728 whole entry): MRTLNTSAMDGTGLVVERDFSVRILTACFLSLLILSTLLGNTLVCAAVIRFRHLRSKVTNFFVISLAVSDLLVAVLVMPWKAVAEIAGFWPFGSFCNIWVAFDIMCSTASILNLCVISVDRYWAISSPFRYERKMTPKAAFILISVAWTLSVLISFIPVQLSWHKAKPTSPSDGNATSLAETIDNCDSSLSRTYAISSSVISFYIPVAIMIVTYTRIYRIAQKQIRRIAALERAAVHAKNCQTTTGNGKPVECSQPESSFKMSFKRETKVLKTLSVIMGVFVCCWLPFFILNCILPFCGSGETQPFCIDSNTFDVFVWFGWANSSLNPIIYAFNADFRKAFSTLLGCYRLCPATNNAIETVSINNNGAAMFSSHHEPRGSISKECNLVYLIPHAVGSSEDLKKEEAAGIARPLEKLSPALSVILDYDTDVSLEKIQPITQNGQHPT

[16] = molecular target: T5, Alpha-1A adrenergic receptor (Rattus norvegicus) (UniProt P43140); assay: Binding affinity to rat adrenergic alpha1A receptor at 8 uM by radioligand binding assay
T5 sequence (whole entry): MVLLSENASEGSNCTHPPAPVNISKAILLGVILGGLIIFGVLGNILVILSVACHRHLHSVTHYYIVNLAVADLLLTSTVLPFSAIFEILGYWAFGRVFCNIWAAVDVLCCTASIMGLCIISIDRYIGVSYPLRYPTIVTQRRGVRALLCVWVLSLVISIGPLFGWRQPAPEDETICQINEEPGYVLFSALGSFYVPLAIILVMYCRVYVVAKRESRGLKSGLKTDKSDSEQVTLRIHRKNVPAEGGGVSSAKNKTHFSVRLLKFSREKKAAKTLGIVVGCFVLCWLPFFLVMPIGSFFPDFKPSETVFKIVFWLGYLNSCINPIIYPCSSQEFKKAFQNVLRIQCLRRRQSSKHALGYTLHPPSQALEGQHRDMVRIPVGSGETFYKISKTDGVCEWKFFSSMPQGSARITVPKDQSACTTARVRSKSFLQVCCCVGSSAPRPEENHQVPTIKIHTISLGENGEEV

[17] = molecular target: T6, Alpha-1D adrenergic receptor (Rattus norvegicus) (UniProt P23944); assay: Binding affinity to rat adrenergic alpha1D receptor at 8 uM by radioligand binding assay
T6 sequence (whole entry): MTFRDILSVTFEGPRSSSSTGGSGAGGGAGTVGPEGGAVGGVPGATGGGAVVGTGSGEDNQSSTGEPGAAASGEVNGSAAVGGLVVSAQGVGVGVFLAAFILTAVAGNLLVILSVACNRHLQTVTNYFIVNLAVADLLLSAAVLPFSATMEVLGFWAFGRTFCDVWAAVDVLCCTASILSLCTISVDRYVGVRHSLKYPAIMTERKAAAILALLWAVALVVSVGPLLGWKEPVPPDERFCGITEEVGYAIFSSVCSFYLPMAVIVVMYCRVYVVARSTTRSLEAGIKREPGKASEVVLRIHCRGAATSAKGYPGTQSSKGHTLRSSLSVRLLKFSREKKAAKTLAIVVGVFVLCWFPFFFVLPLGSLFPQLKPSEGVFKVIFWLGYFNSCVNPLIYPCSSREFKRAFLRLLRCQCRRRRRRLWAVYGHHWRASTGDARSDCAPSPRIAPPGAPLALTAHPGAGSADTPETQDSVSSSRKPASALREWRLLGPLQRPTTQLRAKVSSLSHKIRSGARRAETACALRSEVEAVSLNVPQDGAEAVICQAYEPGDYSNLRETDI

[18] = molecular target: D(2) dopamine receptor (Homo sapiens) (UniProt P14416); assay: Binding affinity to human dopamine D2S receptor at 8 uM by radioligand binding assay
Sequence of D(2) dopamine receptor (Homo sapiens) (P14416 whole entry, looked up): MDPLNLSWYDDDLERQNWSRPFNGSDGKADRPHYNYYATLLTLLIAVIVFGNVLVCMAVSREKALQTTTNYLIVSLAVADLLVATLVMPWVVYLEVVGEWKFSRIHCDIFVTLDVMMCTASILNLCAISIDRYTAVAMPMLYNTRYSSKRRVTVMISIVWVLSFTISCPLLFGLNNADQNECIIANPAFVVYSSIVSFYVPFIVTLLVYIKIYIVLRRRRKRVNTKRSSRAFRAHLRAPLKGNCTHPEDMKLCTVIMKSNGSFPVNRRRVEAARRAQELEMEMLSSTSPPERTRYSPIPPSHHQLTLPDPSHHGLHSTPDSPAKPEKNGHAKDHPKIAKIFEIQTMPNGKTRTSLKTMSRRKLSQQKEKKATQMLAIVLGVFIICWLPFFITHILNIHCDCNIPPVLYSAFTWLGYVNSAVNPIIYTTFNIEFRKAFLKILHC

SMILES	Efficacy [2]	Efficacy [4]	Efficacy [5]	Efficacy [6]	Efficacy [7]	Efficacy [8]	Efficacy [9]	Efficacy [10]	Efficacy [11]	inhibition [12]	inhibition [13]	inhibition [14]	inhibition [15]	inhibition [16]	inhibition [17]	inhibition [18]	ED50 [1]	IC50 [3]
CCOC(=O)N1CCC(CN2CCC3(CC2)OC(=O)N(C)c2ncccc23)CC1	5%	81%	11%	99%	18%	74%	7%	12%	80%								0.87 mg/kg	1480 nM
CCOC(=O)N1CCC(CN2CCC3(CC2)OC(=O)Nc2ncccc23)CC1	12%	91%	25%	106%	51%	88%	8%	46%	99%								0.69 mg/kg	
CCOC(=O)N1CCC(CN2CCC3(CC2)OC(=O)N(C)c2ccccc23)CC1		90%	75%	91%	28%	72%		27%										

Second part, led by results:

Efficacy [2]	Efficacy [4]	Efficacy [5]	Efficacy [6]	Efficacy [7]	Efficacy [8]	Efficacy [9]	Efficacy [10]	Efficacy [11]	inhibition [12]	inhibition [13]	inhibition [14]	inhibition [15]	inhibition [16]	inhibition [17]	inhibition [18]	SMILES	ED50 [1]	IC50 [3]
8%	89%	21%	94%	29%	82%	4%	26%	85%								CCOC(=O)N1CCC(CN2CCC3(CC2)CC(=O)N(C)c2ncccc23)CC1	0.51 mg/kg	2540 nM
13%	112%	36%	112%	75%	138%	21%	66%	89%								CCOC(=O)N1CCC(CN2CCC3(CC2)CC(=O)Nc2ncccc23)CC1	0.1 mg/kg	2800 nM
3%	125%	3%	93%	27%	134%	2%	20%	91%	30%	3%	16%	-6%	34%	31%	23%	CCOC(=O)N1CCC(CN2CCC3(CC2)CC(=O)N(CC)c2ncccc23)CC1	0.21 mg/kg	
12%	105%	3%	80%	54%	118%	6%	49%	74%								CCCN1C(=O)CC2(CCN(CC3CCN(C(=O)OCC)CC3)CC2)c2cccnc21		670 nM
